System: PRMT6
Experiment: Lentiviral shRNA knock-down tested in motor-neuron cell lines
Format: cell-based
Conditions: lentiviral transduction of motor-neuron cell lines
Experimental: Transgenes to express shRNA against PRMT6 (shPRMT6 #1, SEQ ID NO: 232 and shPRMT6 #2, SEQ ID NO: 233) and the corresponding scramble were cloned into lentiviral constructs (pLKO.1-puro).
HEK293T cells were transfected by calcium phosphate with lentiviral vectors together with pCMV-dR8.91 (Delta 8.9) plasmids containing gag, pol, and rev genes and VSV-G envelope plasmid. At 16 hours post-transfection, medium was replaced with fresh medium, and 24 hours later it was collected, centrifuged at 1000×g for 10 minutes (to pellet and thus remove any cellular debris), filtered through 0.45-μm pores, and stored at −80° C. in aliquots. To quantify viruses, 10 μL of viral particles were lysed for 10 minutes at room temperature by adding an equal volume of 2× lysis buffer [0.25% Triton X-100, 50 mM KCl, 100 mM Tris-HCl pH 7.4, 40% glycerol, and 0.8 U/μL RNase inhibitor (RiboLock, Fermentas)]. Lysates were added to a single-step RT-PCR assay with 3.5 nM MS2 RNA (Roche) as template, 500 nM of each primer and hot-start Taq (Truestart Hotstart Taq, Fermentas), all in 20 mM Tris-Cl pH 8.3, 5 mM (NH4)2SO4, 20 mM KCl, 5 mM MgCl2, 0.1 mg/ml BSA, 1/20,000 SYBR Green I (Invitrogen, #S7563), and 200 µM dNTPs. […]

In the case of “shPRMT6 #1: shRNA against PRMT6 in lentiviral construct pLKO.1-puro, caccggcauucugagcaucuu (CACCGGCAUUCUGAGCAUCUU)”, the knock-down efficiency is reported as “most efficient knock-down”.
